Measurements reported in US9771369B2, “Compounds and methods for kinase modulation, and indications therefor” (Plexxikon Inc., priority 2014, dated 2017).

The compounds below were run against c-Kit kinase (Homo sapiens (Human), UniProt P10721) (assay: c-Kit biochemical assay (AlphaScreen kinase activity)).
Summary of the method: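 IC50 values come from 8-point, 1:3 compound titrations measuring inhibition of peptide phosphorylation by c-Kit (commercial or His-tagged E. coli-expressed) over 1 h at room temperature, read by AlphaScreen PY30/streptavidin beads. Low-ATP version: 10 μM ATP, 100 nM biotin-(E4Y)3; high-ATP version: 100 μM ATP, 30 nM biotin-(E4Y)10.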

c-Kit kinase, sequence (P10721 26-976): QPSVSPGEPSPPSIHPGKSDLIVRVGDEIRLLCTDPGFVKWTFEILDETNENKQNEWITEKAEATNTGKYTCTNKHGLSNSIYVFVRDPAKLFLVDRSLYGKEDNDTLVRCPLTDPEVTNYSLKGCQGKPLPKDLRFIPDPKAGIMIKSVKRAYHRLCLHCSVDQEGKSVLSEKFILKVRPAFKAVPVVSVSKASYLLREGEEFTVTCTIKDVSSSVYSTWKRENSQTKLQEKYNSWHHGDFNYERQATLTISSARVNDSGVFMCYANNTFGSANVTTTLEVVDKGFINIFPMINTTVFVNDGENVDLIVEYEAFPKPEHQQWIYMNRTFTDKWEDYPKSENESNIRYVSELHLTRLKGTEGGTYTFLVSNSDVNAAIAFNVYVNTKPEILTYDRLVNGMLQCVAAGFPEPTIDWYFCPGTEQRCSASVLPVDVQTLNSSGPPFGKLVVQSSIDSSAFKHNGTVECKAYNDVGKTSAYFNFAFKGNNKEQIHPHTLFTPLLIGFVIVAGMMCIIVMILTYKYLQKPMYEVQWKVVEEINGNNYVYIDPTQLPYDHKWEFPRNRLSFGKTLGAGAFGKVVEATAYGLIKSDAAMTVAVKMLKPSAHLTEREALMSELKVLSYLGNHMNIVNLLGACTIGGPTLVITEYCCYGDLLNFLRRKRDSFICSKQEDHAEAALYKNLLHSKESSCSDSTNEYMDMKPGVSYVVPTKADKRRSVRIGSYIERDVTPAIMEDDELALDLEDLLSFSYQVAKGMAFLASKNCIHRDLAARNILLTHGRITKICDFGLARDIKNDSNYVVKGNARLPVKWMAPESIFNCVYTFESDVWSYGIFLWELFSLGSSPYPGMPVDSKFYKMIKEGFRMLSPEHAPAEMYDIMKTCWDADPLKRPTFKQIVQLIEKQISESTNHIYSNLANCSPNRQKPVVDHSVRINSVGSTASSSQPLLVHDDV

Row | Compound | IC50
1 | Cc1cc2c(N3CCC(C)(c4nc(C)c(-c5ccc(OC(F)F)cc5)[nH]4)CC3)ncnc2[nH]1 [P-3196, 4-[4-[5-[4-(difluoromethoxy)phenyl]-4-methyl-1H-imidazol-2-yl]-4-methyl-1-piperidyl]-6-methyl-7H-pyrrolo[2,3-d]pyrimidine] | 1 to 10 µM
2 | CCc1[nH]c(C2CCN(c3ncnc4[nH]c(-c5cnn(C(F)F)c5)cc34)CC2)nc1C [P-3197, 6-[1-(difluoromethyl)pyrazol-4-yl]-4-[4-(5-ethyl-4-methyl-1H-imidazol-2-yl)-1-piperidyl]-7H-pyrrolo[2,3-d]pyrimidine] | 1 to 10 µM
3 | CCc1[nH]c(C2CCN(c3ncnc4[nH]c(-c5ccc(C#N)cc5)cc34)CC2)nc1C [P-3198, 4-[4-[4-(5-ethyl-4-methyl-1H-imidazol-2-yl)-1-piperidyl]-7H-pyrrolo[2,3-d]pyrimidin-6-yl]benzonitrile] | 1 to 10 µM
4 | COc1ccc(-c2[nH]c(C3(C)CCN(c4ncnc5[nH]c(-c6ccc(C(=O)O)cc6)cc45)CC3)nc2C)cc1F [P-3199, 4-[4-[4-[5-(3-fluoro-4-methoxy-phenyl)-4-methyl-1H-imidazol-2-yl]-4-methyl-1-piperidyl]-7H-pyrrolo[2,3-d]pyrimidin-6-yl]benzoic acid] | 0.0001 to 1 µM
5 | Cc1nc(C2(C)CCN(c3ncnc4[nH]nc(C)c34)CC2)[nH]c1-c1ccc(Cl)cc1 [P-3200, 4-[4-[5-(4-chlorophenyl)-4-methyl-1H-imidazol-2-yl]-4-methyl-1-piperidyl]-3-methyl-1H-pyrazolo[3,4-d]pyrimidine] | 1 to 10 µM
6 | Cc1nc(C2(C)CCN(c3ncnc4[nH]nc(C)c34)CC2)[nH]c1-c1cccc(OC(F)F)c1 [P-3201, 4-[4-[5-[3-(difluoromethoxy)phenyl]-4-methyl-1H-imidazol-2-yl]-4-methyl-1-piperidyl]-3-methyl-1H-pyrazolo[3,4-d]pyrimidine] | 1 to 10 µM
7 | COc1ccc(-c2[nH]c(C3(C)CCN(c4ncnc5[nH]nc(C)c45)CC3)nc2C)cc1F [P-3202, 4-[4-[5-(3-fluoro-4-methoxy-phenyl)-4-methyl-1H-imidazol-2-yl]-4-methyl-1-piperidyl]-3-methyl-1H-pyrazolo[3,4-d]pyrimidine] | 1 to 10 µM
8 | Cc1nc(C2(C)CCN(c3ncnc4[nH]nc(C)c34)CC2)[nH]c1-c1ccc2c(c1)OC(F)(F)O2 [P-3203, 4-[4-[5-(2,2-difluoro-1,3-benzodioxol-5-yl)-4-methyl-1H-imidazol-2-yl]-4-methyl-1-piperidyl]-3-methyl-1H-pyrazolo[3,4-d]pyrimidine] | 1 to 10 µM
9 | Fc1ccc(-c2cc3c(N4CCC(c5nnc(-c6ccc(F)cc6)[nH]5)CC4)ncnc3[nH]2)cc1 [P-3206, 6-(4-fluorophenyl)-4-[4-[5-(4-fluorophenyl)-4H-1,2,4-triazol-3-yl]-1-piperidyl]-7H-pyrrolo[2,3-d]pyrimidine] | 1 to 10 µM
10 | COc1cc(-c2cc3c(N4CCC(c5nnc(-c6cccc(OC(F)F)c6)[nH]5)CC4)ncnc3[nH]2)ccn1 [P-3207, 4-[4-[5-[3-(difluoromethoxy)phenyl]-4H-1,2,4-triazol-3-yl]-1-piperidyl]-6-(2-methoxy-4-pyridyl)-7H-pyrrolo[2,3-d]pyrimidine] | 1 to 10 µM
11 | CCOc1ccc(-c2[nH]c(C3(C)CCN(c4ncnc5[nH]c(-c6ccc(OC)nc6)cc45)CC3)nc2C)cc1F [P-3209, 4-[4-[5-(4-ethoxy-3-fluoro-phenyl)-4-methyl-1H-imidazol-2-yl]-4-methyl-1-piperidyl]-6-(6-methoxy-3-pyridyl)-7H-pyrrolo[2,3-d]pyrimidine] | 0.0001 to 1 µM
12 | CCOc1ccc(-c2[nH]c(C3(C)CCN(c4ncnc5[nH]c(-c6cnn(C(F)F)c6)cc45)CC3)nc2C)cc1F [P-3210, 6-[1-(difluoromethyl)pyrazol-4-yl]-4-[4-[5-(4-ethoxy-3-fluoro-phenyl)-4-methyl-1H-imidazol-2-yl]-4-methyl-1-piperidyl]-7H-pyrrolo[2,3-d]pyrimidine] | 0.0001 to 1 µM
13 | COc1ccc(-c2[nH]c(C3(C)CCN(c4ncnc5[nH]c(-c6ccc(C#N)nc6)cc45)CC3)nc2C)cc1F [P-3211, 5-[4-[4-[5-(3-fluoro-4-methoxy-phenyl)-4-methyl-1H-imidazol-2-yl]-4-methyl-1-piperidyl]-7H-pyrrolo[2,3-d]pyrimidin-6-yl]pyridine-2-carbonitrile] | 1 to 10 µM
14 | COc1ccc(-c2[nH]c(C3(C)CCN(c4ncnc5[nH]c(-c6ccc(C(N)=O)cc6)cc45)CC3)nc2C)cc1F [P-3212, 4-[4-[4-[5-(3-fluoro-4-methoxy-phenyl)-4-methyl-1H-imidazol-2-yl]-4-methyl-1-piperidyl]-7H-pyrrolo[2,3-d]pyrimidin-6-yl]benzamide] | 0.0001 to 1 µM
15 | COc1ccc(-c2[nH]c(C3(C)CCN(c4ncnc5[nH]c(-c6ccc(NS(C)(=O)=O)cc6)cc45)CC3)nc2C)cc1F [P-3213, N-[4-[4-[4-[5-(3-fluoro-4-methoxy-phenyl)-4-methyl-1H-imidazol-2-yl]-4-methyl-1-piperidyl]-7H-pyrrolo[2,3-d]pyrimidin-6-yl]phenyl]methanesulfonamide] | 0.0001 to 1 µM
16 | COc1ccc(-c2[nH]c(C3(C)CCN(c4ncnc5[nH]c(-c6ccc(OCC(=O)O)cc6)cc45)CC3)nc2C)cc1F [P-3214, 2-[4-[4-[4-[5-(3-fluoro-4-methoxy-phenyl)-4-methyl-1H-imidazol-2-yl]-4-methyl-1-piperidyl]-7H-pyrrolo[2,3-d]pyrimidin-6-yl]phenoxy]acetic acid] | 0.0001 to 1 µM
17 | COc1ccc(-c2[nH]c(C3(C)CCN(c4ncnc5[nH]c(-c6ccc(N7CCOCC7)nc6)cc45)CC3)nc2C)cc1F [P-3215, 4-[5-[4-[4-[5-(3-fluoro-4-methoxy-phenyl)-4-methyl-1H-imidazol-2-yl]-4-methyl-1-piperidyl]-7H-pyrrolo[2,3-d]pyrimidin-6-yl]-2-pyridyl]morpholine] | 0.0001 to 1 µM
18 | COc1ccc(-c2[nH]c(C3(C)CCN(c4ncnc5[nH]c(-c6ccc(C(N)=O)cc6)cc45)CC3)nc2C)cc1C [P-3216, 4-[4-[4-[5-(4-methoxy-3-methyl-phenyl)-4-methyl-1H-imidazol-2-yl]-4-methyl-1-piperidyl]-7H-pyrrolo[2,3-d]pyrimidin-6-yl]benzamide] | 0.0001 to 1 µM
19 | COc1ccc(-c2[nH]c(C3(C)CCN(c4ncnc5[nH]c(-c6ccc(OCC(=O)O)cc6)cc45)CC3)nc2C)cc1C [P-3217, 2-[4-[4-[4-[5-(4-methoxy-3-methyl-phenyl)-4-methyl-1H-imidazol-2-yl]-4-methyl-1-piperidyl]-7H-pyrrolo[2,3-d]pyrimidin-6-yl]phenoxy]acetic acid] | 0.0001 to 1 µM
20 | CNC(=O)c1ccc(-c2cc3c(N4CCC(C)(c5nc(C)c(-c6ccc(OC)c(C)c6)[nH]5)CC4)ncnc3[nH]2)cn1 [P-3218, 5-[4-[4-[5-(4-methoxy-3-methyl-phenyl)-4-methyl-1H-imidazol-2-yl]-4-methyl-1-piperidyl]-7H-pyrrolo[2,3-d]pyrimidin-6-yl]-N-methyl-pyridine-2-carboxamide] | 0.0001 to 1 µM
21 | COc1ccc(-c2[nH]c(C3(C)CCN(c4ncnc5[nH]c(-c6ccc(N7CCOCC7)nc6)cc45)CC3)nc2C)cc1C [P-3219, 4-[5-[4-[4-[5-(4-methoxy-3-methyl-phenyl)-4-methyl-1H-imidazol-2-yl]-4-methyl-1-piperidyl]-7H-pyrrolo[2,3-d]pyrimidin-6-yl]-2-pyridyl]morpholine] | 0.0001 to 1 µM
22 | CNC(=O)c1ccc(-c2cc3c(N4CCC(C)(c5nc(C)c(-c6ccc(OC)c(F)c6)[nH]5)CC4)ncnc3[nH]2)cn1 [P-3220, 5-[4-[4-[5-(3-fluoro-4-methoxy-phenyl)-4-methyl-1H-imidazol-2-yl]-4-methyl-1-piperidyl]-7H-pyrrolo[2,3-d]pyrimidin-6-yl]-N-methyl-pyridine-2-carboxamide] | 0.0001 to 1 µM
23 | COc1cccc(-c2[nH]c(C3(C)CCN(c4ncnc5[nH]c(-c6ccc(OCC(=O)O)cc6)cc45)CC3)nc2C)c1 [P-3221, 2-[4-[4-[4-[5-(3-methoxyphenyl)-4-methyl-1H-imidazol-2-yl]-4-methyl-1-piperidyl]-7H-pyrrolo[2,3-d]pyrimidin-6-yl]phenoxy]acetic acid] | 0.0001 to 1 µM
24 | CNC(=O)c1ccc(-c2cc3c(N4CCC(C)(c5nc(C)c(-c6cccc(OC)c6)[nH]5)CC4)ncnc3[nH]2)cn1 [P-3222, 5-[4-[4-[5-(3-methoxyphenyl)-4-methyl-1H-imidazol-2-yl]-4-methyl-1-piperidyl]-7H-pyrrolo[2,3-d]pyrimidin-6-yl]-N-methyl-pyridine-2-carboxamide] | 0.0001 to 1 µM
25 | COc1cccc(-c2[nH]c(C3(C)CCN(c4ncnc5[nH]c(-c6ccc(N7CCOCC7)nc6)cc45)CC3)nc2C)c1 [P-3223, 4-[5-[4-[4-[5-(3-methoxyphenyl)-4-methyl-1H-imidazol-2-yl]-4-methyl-1-piperidyl]-7H-pyrrolo[2,3-d]pyrimidin-6-yl]-2-pyridyl]morpholine] | 0.0001 to 1 µM
26 | CCOc1ccc(-c2[nH]c(C3(C)CCN(c4ncnc5[nH]c(-c6ccc(OCC(=O)O)cc6)cc45)CC3)nc2C)cc1 [P-3224, 2-[4-[4-[4-[5-(4-ethoxyphenyl)-4-methyl-1H-imidazol-2-yl]-4-methyl-1-piperidyl]-7H-pyrrolo[2,3-d]pyrimidin-6-yl]phenoxy]acetic acid] | 0.0001 to 1 µM
27 | COc1cccc(-c2[nH]c(C3(C)CCN(c4ncnc5[nH]c(-c6ccc(C(N)=O)cc6)cc45)CC3)nc2C)c1 [P-3225, 4-[4-[4-[5-(3-methoxyphenyl)-4-methyl-1H-imidazol-2-yl]-4-methyl-1-piperidyl]-7H-pyrrolo[2,3-d]pyrimidin-6-yl]benzamide] | 0.0001 to 1 µM
28 | CCOc1ccc(-c2[nH]c(C3(C)CCN(c4ncnc5[nH]c(-c6ccc(C(=O)NC)nc6)cc45)CC3)nc2C)cc1 [P-3226, 5-[4-[4-[5-(4-ethoxyphenyl)-4-methyl-1H-imidazol-2-yl]-4-methyl-1-piperidyl]-7H-pyrrolo[2,3-d]pyrimidin-6-yl]-N-methyl-pyridine-2-carboxamide] | 0.0001 to 1 µM
